Measurements: the supplement of paper PMC10307832

Legend:
Assay in all cases: relative viability (nuclei count vs DMSO), 5 days (fraction); higher = more cells survive
[1] = system: NCI-H1755
How it was run: (§1)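 Lung cancer cell lines, seeded in 1536-well plates, were treated the following day by pin tool with a single drug or with five library-drug doses (not always all listed) in √10 steps on top of a fixed anchor-drug dose. Cells were fixed and nuclei stained in one step after 5 days, and nuclei were counted. Relative viability is the nuclei count for treated wells divided by that for vehicle wells, reported as medians of duplicate plates.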

[2] = system: HCC-366
How it was run: as §1

[3] = system: SK-LU-1
How it was run: as §1

[4] = system: NCI-H522
How it was run: as §1

[5] = system: HCC-827
How it was run: as §1

[6] = system: NCI-H460
How it was run: as §1

[7] = system: NCI-H23
How it was run: as §1

[8] = system: EMC-BAC-2
How it was run: as §1

[9] = system: A-427
How it was run: as §1

[10] = system: CAL-12T
How it was run: as §1

[11] = system: HOP-62
How it was run: as §1

[12] = system: NCI-H1975
How it was run: as §1

[13] = system: HARA
How it was run: as §1

[14] = system: NCI-H1355
How it was run: as §1

[15] = system: NCI-H1437
How it was run: as §1

[16] = system: LCLC-103H
How it was run: as §1

[17] = system: NCI-H727
How it was run: as §1

[18] = system: NCI-H1915
How it was run: as §1

[19] = system: NCI-H1792
How it was run: as §1

[20] = system: SW 1573
How it was run: as §1

[21] = system: COR-L 105
How it was run: as §1

[22] = system: NCI-H1395
How it was run: as §1

[23] = system: NCI-H2009
How it was run: as §1

[24] = system: NCI-H2228
How it was run: as §1

Clc1ccc(Nc2nnc(Cc3ccncc3)c3ccccc23)cc1 [Vatalanib] + CC(=O)Nc1cccc(-n2c(=O)n(C3CC3)c(=O)c3c(Nc4ccc(I)cc4F)n(C)c(=O)c(C)c32)c1 [Trametinib] (partner 0.02 µM)
relative viability ([1]; first compound 0.04 µM): 0.734 | relative viability ([1]; first compound 0.1265 µM): 0.812 | relative viability ([1]; first compound 0.4 µM): 0.753 | relative viability ([1]; first compound 1.265 µM): 0.788 | relative viability ([1]; first compound 4 µM): 0.717 | relative viability ([2]; first compound 0.04 µM): 0.393 | relative viability ([2]; first compound 0.1265 µM): 0.294 | relative viability ([2]; first compound 0.4 µM): 0.372 | relative viability ([2]; first compound 1.265 µM): 0.306 | relative viability ([2]; first compound 4 µM): 0.299 | relative viability ([3]; first compound 0.04 µM): 0.59 | relative viability ([3]; first compound 0.1265 µM): 0.54 | relative viability ([3]; first compound 0.4 µM): 0.666 | relative viability ([3]; first compound 1.265 µM): 0.533 | relative viability ([3]; first compound 4 µM): 0.599 | relative viability ([4]; first compound 0.04 µM): 0.73 | relative viability ([4]; first compound 0.1265 µM): 0.714 | relative viability ([4]; first compound 0.4 µM): 0.714 | relative viability ([4]; first compound 1.265 µM): 0.754 | relative viability ([4]; first compound 4 µM): 0.882 | relative viability ([5]; first compound 0.04 µM): 0.519 | relative viability ([5]; first compound 0.1265 µM): 0.578 | relative viability ([5]; first compound 1.265 µM): 0.52 | relative viability ([5]; first compound 4 µM): 0.522 | relative viability ([6]; first compound 0.04 µM): 0.178 | relative viability ([6]; first compound 0.1265 µM): 0.11 | relative viability ([6]; first compound 0.4 µM): 0.201 | relative viability ([6]; first compound 1.265 µM): 0.135 | relative viability ([6]; first compound 4 µM): 0.0924 | relative viability ([7]; first compound 0.04 µM): 0.308 | relative viability ([7]; first compound 0.1265 µM): 0.296 | relative viability ([7]; first compound 0.4 µM): 0.356 | relative viability ([7]; first compound 1.265 µM): 0.363 | relative viability ([7]; first compound 4 µM): 0.419 | relative viability ([8]; first compound 0.04 µM): 0.902 | relative viability ([8]; first compound 0.1265 µM): 0.879 | relative viability ([8]; first compound 0.4 µM): 0.908 | relative viability ([8]; first compound 4 µM): 0.944 | relative viability ([9]; first compound 0.04 µM): 0.741 | relative viability ([9]; first compound 0.1265 µM): 0.743 | relative viability ([9]; first compound 0.4 µM): 0.867 | relative viability ([9]; first compound 4 µM): 0.73 | relative viability ([10]; first compound 0.04 µM): 0.366 | relative viability ([10]; first compound 0.1265 µM): 0.296 | relative viability ([10]; first compound 0.4 µM): 0.368 | relative viability ([10]; first compound 1.265 µM): 0.366 | relative viability ([10]; first compound 4 µM): 0.298 | relative viability ([11]; first compound 0.04 µM): 0.388 | relative viability ([11]; first compound 0.1265 µM): 0.382 | relative viability ([11]; first compound 0.4 µM): 0.42 | relative viability ([11]; first compound 1.265 µM): 0.367 | relative viability ([11]; first compound 4 µM): 0.355 | relative viability ([12]; first compound 0.04 µM): 0.317 | relative viability ([12]; first compound 0.1265 µM): 0.345 | relative viability ([12]; first compound 0.4 µM): 0.434 | relative viability ([12]; first compound 1.265 µM): 0.315 | relative viability ([12]; first compound 4 µM): 0.361 | relative viability ([13]; first compound 0.04 µM): 0.687 | relative viability ([13]; first compound 0.1265 µM): 0.728 | relative viability ([13]; first compound 0.4 µM): 0.606 | relative viability ([13]; first compound 1.265 µM): 0.677 | relative viability ([13]; first compound 4 µM): 0.909 | relative viability ([14]; first compound 0.04 µM): 0.443 | relative viability ([14]; first compound 0.1265 µM): 0.383 | relative viability ([14]; first compound 0.4 µM): 0.461 | relative viability ([14]; first compound 1.265 µM): 0.404 | relative viability ([14]; first compound 4 µM): 0.428 | relative viability ([15]; first compound 0.04 µM): 0.571 | relative viability ([15]; first compound 0.1265 µM): 0.499 | relative viability ([15]; first compound 0.4 µM): 0.554 | relative viability ([15]; first compound 1.265 µM): 0.451 | relative viability ([15]; first compound 4 µM): 0.486 | relative viability ([16]; first compound 0.04 µM): 0.663 | relative viability ([16]; first compound 0.1265 µM): 0.663 | relative viability ([16]; first compound 0.4 µM): 0.684 | relative viability ([16]; first compound 1.265 µM): 0.653 | relative viability ([16]; first compound 4 µM): 0.669 | relative viability ([17]; first compound 0.1265 µM): 0.413 | relative viability ([17]; first compound 0.4 µM): 0.377 | relative viability ([17]; first compound 1.265 µM): 0.37 | relative viability ([17]; first compound 4 µM): 0.394 | relative viability ([18]; first compound 0.04 µM): 0.32 | relative viability ([18]; first compound 0.1265 µM): 0.34 | relative viability ([18]; first compound 0.4 µM): 0.323 | relative viability ([18]; first compound 1.265 µM): 0.298 | relative viability ([18]; first compound 4 µM): 0.295 | relative viability ([19]; first compound 0.04 µM): 0.528 | relative viability ([19]; first compound 0.1265 µM): 0.395 | relative viability ([19]; first compound 0.4 µM): 0.394 | relative viability ([19]; first compound 1.265 µM): 0.399 | relative viability ([19]; first compound 4 µM): 0.456 | relative viability ([20]; first compound 0.1265 µM): 0.569 | relative viability ([20]; first compound 0.4 µM): 0.607 | relative viability ([20]; first compound 1.265 µM): 0.58 | relative viability ([20]; first compound 4 µM): 0.564 | relative viability ([21]; first compound 0.04 µM): 0.451 | relative viability ([21]; first compound 0.1265 µM): 0.363 | relative viability ([21]; first compound 0.4 µM): 0.427 | relative viability ([21]; first compound 1.265 µM): 0.443 | relative viability ([21]; first compound 4 µM): 0.426 | relative viability ([22]; first compound 0.04 µM): 1.1 | relative viability ([22]; first compound 0.1265 µM): 1.03 | relative viability ([22]; first compound 0.4 µM): 1.14 | relative viability ([22]; first compound 4 µM): 0.974 | relative viability ([23]; first compound 0.04 µM): 0.32 | relative viability ([23]; first compound 0.1265 µM): 0.251 | relative viability ([23]; first compound 0.4 µM): 0.325 | relative viability ([23]; first compound 1.265 µM): 0.307 | relative viability ([23]; first compound 4 µM): 0.263 | relative viability ([24]; first compound 0.04 µM): 0.542 | relative viability ([24]; first compound 0.1265 µM): 0.467 | relative viability ([24]; first compound 0.4 µM): 0.666 | relative viability ([24]; first compound 1.265 µM): 0.782 | relative viability ([24]; first compound 4 µM): 0.44
